In PubChem BioAssay (NCI):
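Interpolation was linear, between the two tested concentrations surrounding the appropriate level; five concentrations were tested over 48 hours in 96-well plates. TGI denotes the concentration required for complete inhibition of growth.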

Experiments:
Experiment in all cases: NCI anticancer screen, dose series, 48 h
[1] = test system: HCC-2998 colon
[2] = test system: MCF7 breast
[3] = test system: HT29 colon
[4] = test system: KM12 colon
[5] = test system: NCI/ADR-RES ovarian
[6] = test system: BT-549 breast
[7] = test system: MDA-MB-231 breast
[8] = test system: RPMI-8226 leukemia
[9] = test system: HL-60(TB) leukemia
[10] = test system: SW-620 colon
[11] = test system: SK-MEL-5 melanoma
[12] = test system: M14 melanoma
[13] = test system: CCRF-CEM leukemia
[14] = test system: SNB-75 CNS
[15] = test system: OVCAR-5 ovarian
[16] = test system: MALME-3M melanoma
[17] = test system: HCT-15 colon
[18] = test system: UACC-257 melanoma
[19] = test system: UACC-62 melanoma
[20] = test system: MDA-N
[21] = test system: NCI-H460 lung
[22] = test system: ACHN renal
[23] = test system: SR leukemia
[24] = test system: HS 578T breast
[25] = test system: EKVX NSCLC
[26] = test system: SF-295 CNS
[27] = test system: MOLT-4 leukemia
[28] = test system: OVCAR-3 ovarian
[29] = test system: T-47D breast
[30] = test system: SK-MEL-28 melanoma
[31] = test system: IGROV1 ovarian
[32] = test system: SNB-19 CNS
[33] = test system: UO-31 renal
[34] = test system: PC-3 prostate
[35] = test system: HOP-92 NSCLC
[36] = test system: U251 CNS
[37] = test system: SF-539 CNS
[38] = test system: LOX IMVI melanoma
[39] = test system: MDA-MB-435
[40] = test system: CAKI-1 renal
[41] = test system: SN12C renal
[42] = test system: SF-268 CNS
[43] = test system: A549 NSCLC
[44] = test system: K-562 leukemia
[45] = test system: COLO 205 colon
[46] = test system: HCT-116 colon
[47] = test system: HOP-62 NSCLC
[48] = test system: TK-10 renal
[49] = test system: NCI-H522 lung
[50] = test system: OVCAR-4 ovarian
[51] = test system: 786-0 renal
[52] = test system: DU-145 prostate
[53] = test system: SK-OV-3 ovarian
[54] = test system: OVCAR-8 ovarian
[55] = test system: NCI-H226 lung
[56] = test system: RXF 393 renal
[57] = test system: A498 renal
[58] = test system: SK-MEL-2 melanoma
[59] = test system: NCI-H23 lung

Measured: TGI

O=C(CCN1CCCCC1)Nc1ccc2sc3ccccc3c(=O)c2n1
39 µM: [23]
30.1 µM: [19]
45.7 µM: [26]
30.3 µM: [34] | [36]
28.6 µM: [44]
34 µM: [4]
23 µM: [14]
35.3 µM: [43]
84 µM: [25]
24.8 µM: [8] | [38]
47.7 µM: [32]
41.5 µM: [24]
22.1 µM: [33]
46.3 µM: [18]
44.4 µM: [7]
42.1 µM: [21]
25.9 µM: [49]
31.3 µM: [31]
46.1 µM: [52]
33.7 µM: [28]
93.6 µM: [29]
28.5 µM: [51]
52.4 µM: [41]
61.9 µM: [11]
46.9 µM: [48]
18.8 µM: [27]
48.7 µM: [53]
33.8 µM: [30]
24.5 µM: [45]
37.2 µM: [6]
22.9 µM: [46]
28.9 µM: [20]
52.7 µM: [22]
73.9 µM: [5]
43.3 µM: [42]
25.8 µM: [39]
1.79 µM: [35]
30 µM: [1]
46.6 µM: [17]
57.5 µM: [2]
33.6 µM: [40]
19.2 µM: [9]
33.2 µM: [10]
54 µM: [13]
31.6 µM: [37]
> 100 µM: [3]
27.3 µM: [12]
41.9 µM: [50]
43.6 µM: [16]
43 µM: [15]
29.8 µM: [47]

COC(=O)C(CCC1C=CN(S(=O)(=O)c2ccc(C)cc2)C1)N=Cc1ccccc1 (centres undefined)
61.1 µM: [23]
53.9 µM: [11]
63 µM: [59]
22.1 µM: [9]
41.1 µM: [45]
49.6 µM: [58]
82 µM: [8]
> 100 µM: [1] | [54] | [2] | [3] | [4] | [5] | [6] | [7] | [55] | [10] | [12] | [13] | [14] | [15] | [17] | [18] | [19] | [20] | [21] | [56] | [57] | [22] | [24] | [25] | [26] | [27] | [28] | [29] | [30] | [31] | [32] | [33] | [34] | [35] | [36] | [37] | [38] | [39] | [40] | [41] | [42] | [43] | [44] | [46] | [47] | [48] | [49] | [50] | [51] | [52] | [53]

O=C(O)c1c(-c2ccccc2)c(=O)[nH]c2ccccc12
> 100 µM: [1] | [54] | [2] | [3] | [4] | [5] | [6] | [7] | [8] | [55] | [9] | [10] | [11] | [12] | [13] | [14] | [15] | [16] | [17] | [18] | [19] | [20] | [21] | [56] | [57] | [22] | [23] | [24] | [25] | [26] | [58] | [27] | [28] | [29] | [30] | [31] | [32] | [33] | [34] | [36] | [38] | [39] | [41] | [42] | [43] | [44] | [45] | [46] | [59] | [47] | [48] | [49] | [50] | [51] | [52] | [53]

Nc1ccc2c(c1)S(=O)(=O)c1cc(O)ccc1O2
> 100 µM: [1] | [54] | [2] | [3] | [4] | [5] | [6] | [7] | [55] | [9] | [10] | [11] | [12] | [13] | [15] | [17] | [18] | [19] | [20] | [21] | [56] | [57] | [22] | [23] | [24] | [25] | [26] | [58] | [27] | [28] | [29] | [30] | [31] | [32] | [33] | [34] | [35] | [36] | [37] | [38] | [39] | [40] | [41] | [42] | [43] | [44] | [45] | [46] | [59] | [47] | [48] | [49] | [50] | [51] | [52] | [53]

CC1=c2c(oc3cc(O)c(Nc4c(C)cc(O)cc4O)c(C)c23)=CC(=O)C1=Nc1c(C)cc(O)cc1O
70.1 µM: [26]
73.7 µM: [41]
54.3 µM: [16]
55.7 µM: [1]
35.1 µM: [11]
63.1 µM: [49]
55.3 µM: [28]
42.1 µM: [45]
33.5 µM: [39]
> 100 µM: [54] | [2] | [5] | [6] | [7] | [8] | [55] | [10] | [15] | [17] | [18] | [19] | [21] | [56] | [57] | [22] | [23] | [24] | [25] | [58] | [27] | [29] | [30] | [31] | [32] | [33] | [34] | [35] | [36] | [40] | [42] | [43] | [44] | [47] | [48] | [50] | [51] | [52] | [53]
94 µM: [4]
50.4 µM: [59]
94.9 µM: [3]
85.3 µM: [12]
40 µM: [20]
88.3 µM: [14]
56.3 µM: [37]
68.5 µM: [46]
